Experimental data as given in patent US20240196933A1, “USE OF GOSSYPOL AND A METHANE INHIBITOR FOR REDUCING THE FORMATION OF METHANE EMANATING FROM THE DIGESTIVE ACTIVITIES OF RUMINANTS” (DSM IP ASSETS B.V., priority 2021, published 2024).

Test system: rumen liquor
Test: In vitro test for methane production (modified Hohenheim Forage value Test, HFT)
Type: cell-based
Settings: TMR feed, 8 h at 39° C.
Experimental: In vitro test for methane production: A modified version of the “Hohenheim Forage value Test (HFT)” was used for testing the effect of specific compounds on the rumen functions mimicked by this in-vitro system.
Principle: Feed is gadded into a syringe with a composition of rumen liquor and an appropriate mixture of buffers. The solution is incubated at 39° C. After 8 hours the quantity (and composition) of gas phase produced is measured and put into a formula for conversion.
Sample weighing: The feed stuff (i.e. TMR (44% concentrate, 6% hay, 37% maize silage and 13% grass silage) is sieved to 1 mm and weighed exactly into 64 syringes. 4 of these syringes are the substrate controls, which display the gas production without the effect of the tested compounds. 4 other syringes are positive control (3-NOP, 10 μM). When needed, 4 syringes contain a carrier control (if the test compounds need a carrier). The remaining syringes contain the test substances, by groups of 4 syringes, in the amounts as indicated in table 1.
• The components are mixed in a Woulff bottle in following order: • 711 ml water • 0.18 ml trace element solution • 355.5 ml buffer solution • 355.5 ml mass element solution • The completed solution is warmed up to 39° C. followed by the addition of 1.83 ml sodium salt solution and the addition of reduction solution at 36° C. The rumen liquor is added, when the indicator turns colourless.
Extraction of the rumen liquor: 750 ml of rumen liquor are added to approximately 1,400 ml of medium solution under continued agitation and CO2-gassing.
Filling the syringes, incubation and determining gas volumes and VFA values: The diluted rumen fluid (24 ml) is added to the glass syringe. The syringes are then incubated for 8 hours at 39° C. under gentle agitation. After 8 hours, the volume of gas produced is measured, and the percentage of methane in the gas phase is determined by gas chromatography.
The food fermented was artificial TMR (44% concentrate, 6% hay, 37% maize silage and 13% grass silage). Gossypol was obtained from Sigma-Aldrich (G8761), and used at a concentration as outlined in table 1. 3-Nitrooxy-propanol (3-NOP) was used at the concentration as outlined in table 1.

| SMILES | Total methane change [% vs. control] found (G 5 μM alone) [% vs. control] | Total methane change [% vs. control] found (G 10 μM alone) [% vs. control] | Total methane change [% vs. control] found (G 20 μM alone) [% vs. control] | Total methane change [% vs. control] found (G 100 μM alone) [% vs. control] | Total methane change [% vs. control] found (3-NOP 2.5 μM alone) [% vs. control] | Total methane change [% vs. control] found (3-NOP 5 μM alone) [% vs. control] | Total methane change [% vs. control] found (3-NOP 10 μM alone) [% vs. control] |
| --- | --- | --- | --- | --- | --- | --- | --- |
| Cc1cc2c(C(C)C)c(O)c(O)c(C=O)c2c(O)c1-c1c(C)cc2c(C(C)C)c(O)c(O)c(C=O)c2c1O [G, Gossypol] | −1 | −11 | −15 | −69 | – | – | – |
| O=[N+]([O-])OCCCO [3-NOP, 3-Nitrooxy-propanol, reference compound] | – | – | – | – | −12 | −54 | −98 |
